Consider three compounds from article PMC3445516 (PLoS ONE, 2012).

Common to all, as to experiment: Ambit kinase profiling, competition binding
The target of one experiment is T1, PRKD1 (Homo sapiens, UniProt Q15139).
T1 construct: purchased Ambit Biosciences (KINOMEscan)
T1 sequence (Q15139 1-912): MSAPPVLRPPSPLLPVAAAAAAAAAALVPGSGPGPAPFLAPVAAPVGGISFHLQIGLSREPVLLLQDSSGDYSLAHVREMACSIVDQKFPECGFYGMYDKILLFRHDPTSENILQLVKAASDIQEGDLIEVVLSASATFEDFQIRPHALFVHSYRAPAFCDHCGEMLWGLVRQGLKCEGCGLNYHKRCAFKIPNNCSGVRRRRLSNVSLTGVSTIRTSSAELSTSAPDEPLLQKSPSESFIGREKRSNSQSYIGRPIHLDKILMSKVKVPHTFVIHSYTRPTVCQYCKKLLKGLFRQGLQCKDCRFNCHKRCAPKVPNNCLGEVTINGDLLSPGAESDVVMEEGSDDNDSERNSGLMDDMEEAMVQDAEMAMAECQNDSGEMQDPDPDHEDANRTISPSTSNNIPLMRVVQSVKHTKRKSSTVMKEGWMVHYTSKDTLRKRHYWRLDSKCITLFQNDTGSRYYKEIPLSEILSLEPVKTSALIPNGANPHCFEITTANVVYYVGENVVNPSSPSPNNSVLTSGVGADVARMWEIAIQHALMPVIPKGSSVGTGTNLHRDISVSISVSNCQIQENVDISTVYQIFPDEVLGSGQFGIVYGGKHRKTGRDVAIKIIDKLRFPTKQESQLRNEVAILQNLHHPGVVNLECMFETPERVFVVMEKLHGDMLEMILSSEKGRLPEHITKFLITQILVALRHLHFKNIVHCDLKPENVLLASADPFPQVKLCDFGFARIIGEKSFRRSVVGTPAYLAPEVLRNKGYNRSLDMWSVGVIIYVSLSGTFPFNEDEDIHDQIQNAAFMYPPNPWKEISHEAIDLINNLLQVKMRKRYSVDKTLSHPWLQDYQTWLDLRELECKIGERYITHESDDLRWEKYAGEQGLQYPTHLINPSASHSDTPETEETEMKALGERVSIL
On the procedure:
(§1) Also included in the kinase profile are four isoforms of PKC (δ, ε, η, θ) and eight isoforms of CAMKs (CAMKIα, δ, γ; CAMKIIα, β, δ, γ; CAMK4).
(§2) The global kinase profiling experiment was performed by Ambit Biosciences.

Another experiment addresses T2, JNK3 (Homo sapiens, UniProt P53779).
T2 construct: purchased Ambit Biosciences (KINOMEscan)
The settings on record: for % Competition: 10 µM. On the procedure:
as §1, §2

The target in a further experiment is T3, p38-beta (Homo sapiens, UniProt Q15759).
T3 construct: purchased Ambit Biosciences (KINOMEscan)
T3 sequence (Q15759 whole entry): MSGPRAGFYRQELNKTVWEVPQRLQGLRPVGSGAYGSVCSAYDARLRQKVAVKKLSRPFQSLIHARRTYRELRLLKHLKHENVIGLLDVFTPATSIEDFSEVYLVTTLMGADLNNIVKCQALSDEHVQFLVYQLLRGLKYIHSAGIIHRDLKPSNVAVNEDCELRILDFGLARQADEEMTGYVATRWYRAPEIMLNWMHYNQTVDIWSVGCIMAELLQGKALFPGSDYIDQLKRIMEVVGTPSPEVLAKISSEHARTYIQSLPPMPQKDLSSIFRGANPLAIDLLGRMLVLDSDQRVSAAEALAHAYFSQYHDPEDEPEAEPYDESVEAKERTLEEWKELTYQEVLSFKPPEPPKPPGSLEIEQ
On the procedure:
as §1, §2

The target of the next experiment is T4, CLK2 (Homo sapiens, UniProt P49760).
T4 construct: purchased Ambit Biosciences (KINOMEscan)
On the procedure: as §1, §2

Another experiment has as its target T5, CIT (Homo sapiens, UniProt O14578).
T5 construct: purchased Ambit Biosciences (KINOMEscan)
The settings on record: for % Competition: 10 µM. On the procedure:
as §1, §2

The next experiment concerns the target T6, TNIK (Homo sapiens, UniProt Q9UKE5).
T6 construct: purchased Ambit Biosciences (KINOMEscan)
On the procedure: as §1, §2

For a further experiment, the target named is T7, DAPK1 (Homo sapiens, UniProt P53355).
T7 construct: purchased Ambit Biosciences (KINOMEscan)
On the procedure:
as §1, §2

Experiment [1] concerns the target T8, TYK2 (JH2 domain-pseudokinase) (Homo sapiens, UniProt P29597).
T8 construct: TYK2 (JH2 domain-pseudokinase); purchased Ambit Biosciences (KINOMEscan)
The settings on record: for % Competition: TYK2 (JH2 domain-pseudokinase), 10 µM. On the procedure:
as §1, §2

Another experiment concerns the target T9, EGFR(L858R) (Homo sapiens, UniProt P00533, L858R).
T9 construct: purchased Ambit Biosciences (KINOMEscan)
To be noted: for % Competition: 10 µM. On the procedure:
as §1, §2

A further experiment addresses T10, RET (Homo sapiens, UniProt P07949).
T10 construct: purchased Ambit Biosciences (KINOMEscan)
On the procedure: as §1, §2

A further experiment addresses T11, ACVRL1 (Homo sapiens, UniProt P37023).
T11 construct: purchased Ambit Biosciences (KINOMEscan)
On the procedure: as §1, §2

A further experiment deals with T12, LCK (Homo sapiens, UniProt P06239).
T12 construct: purchased Ambit Biosciences (KINOMEscan)
T12 sequence (P06239 whole entry): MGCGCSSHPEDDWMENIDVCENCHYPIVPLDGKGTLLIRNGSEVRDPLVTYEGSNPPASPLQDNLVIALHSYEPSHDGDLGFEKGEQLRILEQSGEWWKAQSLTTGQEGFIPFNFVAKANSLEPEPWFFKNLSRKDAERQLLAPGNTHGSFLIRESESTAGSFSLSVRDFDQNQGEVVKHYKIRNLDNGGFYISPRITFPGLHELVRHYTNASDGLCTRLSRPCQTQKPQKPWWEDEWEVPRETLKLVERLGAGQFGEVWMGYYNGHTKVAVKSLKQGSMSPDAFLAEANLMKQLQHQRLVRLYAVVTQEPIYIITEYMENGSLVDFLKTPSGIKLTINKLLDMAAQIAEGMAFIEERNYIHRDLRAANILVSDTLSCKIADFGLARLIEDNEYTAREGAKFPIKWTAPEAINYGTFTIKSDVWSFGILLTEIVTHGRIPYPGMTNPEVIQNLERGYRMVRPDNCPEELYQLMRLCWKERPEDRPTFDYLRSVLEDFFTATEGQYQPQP
On the procedure: as §1, §2

The next experiment concerns the target T13, MEK4 (Homo sapiens, UniProt P45985).
T13 construct: purchased Ambit Biosciences (KINOMEscan)
T13 sequence (P45985 1-399): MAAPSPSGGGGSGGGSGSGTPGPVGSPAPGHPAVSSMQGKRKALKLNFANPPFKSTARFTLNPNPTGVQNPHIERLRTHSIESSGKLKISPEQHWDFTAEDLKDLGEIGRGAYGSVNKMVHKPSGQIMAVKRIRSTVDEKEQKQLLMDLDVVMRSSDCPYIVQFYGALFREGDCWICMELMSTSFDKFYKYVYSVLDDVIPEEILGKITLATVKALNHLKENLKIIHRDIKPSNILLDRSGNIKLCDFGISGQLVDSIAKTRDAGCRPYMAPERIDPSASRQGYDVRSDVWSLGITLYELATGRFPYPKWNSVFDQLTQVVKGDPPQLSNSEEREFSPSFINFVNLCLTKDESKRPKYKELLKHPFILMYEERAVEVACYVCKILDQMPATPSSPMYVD
On the procedure: as §1, §2

Like-named read-outs stand apart in the source and are kept apart here.

T6 sequence (Q9UKE5 whole entry): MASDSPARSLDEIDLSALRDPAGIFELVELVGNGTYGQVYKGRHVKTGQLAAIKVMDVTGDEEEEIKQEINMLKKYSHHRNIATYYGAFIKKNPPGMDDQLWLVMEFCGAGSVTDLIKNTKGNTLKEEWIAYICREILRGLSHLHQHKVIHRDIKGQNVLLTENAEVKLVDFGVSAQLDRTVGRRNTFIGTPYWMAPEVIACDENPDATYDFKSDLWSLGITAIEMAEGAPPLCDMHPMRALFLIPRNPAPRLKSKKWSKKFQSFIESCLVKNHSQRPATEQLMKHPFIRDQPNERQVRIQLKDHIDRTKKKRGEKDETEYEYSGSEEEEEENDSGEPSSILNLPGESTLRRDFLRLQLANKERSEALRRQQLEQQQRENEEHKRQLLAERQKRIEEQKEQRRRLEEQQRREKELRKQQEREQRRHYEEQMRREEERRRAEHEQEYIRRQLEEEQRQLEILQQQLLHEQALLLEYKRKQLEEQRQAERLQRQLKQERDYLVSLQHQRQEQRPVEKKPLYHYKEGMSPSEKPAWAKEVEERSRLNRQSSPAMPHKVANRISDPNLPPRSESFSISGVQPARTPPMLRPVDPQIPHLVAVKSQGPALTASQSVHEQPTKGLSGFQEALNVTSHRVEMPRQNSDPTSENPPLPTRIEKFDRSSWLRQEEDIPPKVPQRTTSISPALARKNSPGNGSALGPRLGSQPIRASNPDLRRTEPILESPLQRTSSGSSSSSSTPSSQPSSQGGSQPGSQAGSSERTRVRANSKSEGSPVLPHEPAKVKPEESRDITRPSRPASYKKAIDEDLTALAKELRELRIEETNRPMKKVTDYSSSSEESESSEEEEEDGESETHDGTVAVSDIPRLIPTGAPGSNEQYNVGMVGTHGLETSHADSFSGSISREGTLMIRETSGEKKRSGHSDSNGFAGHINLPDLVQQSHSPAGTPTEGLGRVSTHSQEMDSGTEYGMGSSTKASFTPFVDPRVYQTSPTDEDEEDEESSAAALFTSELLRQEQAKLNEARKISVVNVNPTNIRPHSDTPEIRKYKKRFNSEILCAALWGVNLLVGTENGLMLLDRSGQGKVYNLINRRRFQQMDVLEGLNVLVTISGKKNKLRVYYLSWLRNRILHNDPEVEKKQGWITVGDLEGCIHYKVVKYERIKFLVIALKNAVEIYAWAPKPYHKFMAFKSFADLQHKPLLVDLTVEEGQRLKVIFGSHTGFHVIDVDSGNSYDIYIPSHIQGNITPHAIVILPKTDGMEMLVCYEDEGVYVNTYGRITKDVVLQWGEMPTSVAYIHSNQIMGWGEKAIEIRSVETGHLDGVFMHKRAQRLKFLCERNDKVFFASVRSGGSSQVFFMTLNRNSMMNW
T11 sequence (P37023 22-503): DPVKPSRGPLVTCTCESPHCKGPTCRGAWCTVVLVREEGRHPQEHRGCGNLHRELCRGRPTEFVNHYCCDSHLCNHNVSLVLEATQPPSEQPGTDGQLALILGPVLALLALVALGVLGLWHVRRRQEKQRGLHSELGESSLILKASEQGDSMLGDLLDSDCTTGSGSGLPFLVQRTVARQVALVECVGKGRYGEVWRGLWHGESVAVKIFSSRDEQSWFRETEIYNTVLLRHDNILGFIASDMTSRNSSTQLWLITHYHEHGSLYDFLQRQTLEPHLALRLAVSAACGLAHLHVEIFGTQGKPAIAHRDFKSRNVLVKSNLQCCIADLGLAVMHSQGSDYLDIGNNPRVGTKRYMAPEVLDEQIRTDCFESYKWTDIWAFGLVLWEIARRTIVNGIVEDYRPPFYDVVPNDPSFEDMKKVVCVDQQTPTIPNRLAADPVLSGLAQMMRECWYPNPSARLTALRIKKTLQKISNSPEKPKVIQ
T5 sequence (O14578 whole entry): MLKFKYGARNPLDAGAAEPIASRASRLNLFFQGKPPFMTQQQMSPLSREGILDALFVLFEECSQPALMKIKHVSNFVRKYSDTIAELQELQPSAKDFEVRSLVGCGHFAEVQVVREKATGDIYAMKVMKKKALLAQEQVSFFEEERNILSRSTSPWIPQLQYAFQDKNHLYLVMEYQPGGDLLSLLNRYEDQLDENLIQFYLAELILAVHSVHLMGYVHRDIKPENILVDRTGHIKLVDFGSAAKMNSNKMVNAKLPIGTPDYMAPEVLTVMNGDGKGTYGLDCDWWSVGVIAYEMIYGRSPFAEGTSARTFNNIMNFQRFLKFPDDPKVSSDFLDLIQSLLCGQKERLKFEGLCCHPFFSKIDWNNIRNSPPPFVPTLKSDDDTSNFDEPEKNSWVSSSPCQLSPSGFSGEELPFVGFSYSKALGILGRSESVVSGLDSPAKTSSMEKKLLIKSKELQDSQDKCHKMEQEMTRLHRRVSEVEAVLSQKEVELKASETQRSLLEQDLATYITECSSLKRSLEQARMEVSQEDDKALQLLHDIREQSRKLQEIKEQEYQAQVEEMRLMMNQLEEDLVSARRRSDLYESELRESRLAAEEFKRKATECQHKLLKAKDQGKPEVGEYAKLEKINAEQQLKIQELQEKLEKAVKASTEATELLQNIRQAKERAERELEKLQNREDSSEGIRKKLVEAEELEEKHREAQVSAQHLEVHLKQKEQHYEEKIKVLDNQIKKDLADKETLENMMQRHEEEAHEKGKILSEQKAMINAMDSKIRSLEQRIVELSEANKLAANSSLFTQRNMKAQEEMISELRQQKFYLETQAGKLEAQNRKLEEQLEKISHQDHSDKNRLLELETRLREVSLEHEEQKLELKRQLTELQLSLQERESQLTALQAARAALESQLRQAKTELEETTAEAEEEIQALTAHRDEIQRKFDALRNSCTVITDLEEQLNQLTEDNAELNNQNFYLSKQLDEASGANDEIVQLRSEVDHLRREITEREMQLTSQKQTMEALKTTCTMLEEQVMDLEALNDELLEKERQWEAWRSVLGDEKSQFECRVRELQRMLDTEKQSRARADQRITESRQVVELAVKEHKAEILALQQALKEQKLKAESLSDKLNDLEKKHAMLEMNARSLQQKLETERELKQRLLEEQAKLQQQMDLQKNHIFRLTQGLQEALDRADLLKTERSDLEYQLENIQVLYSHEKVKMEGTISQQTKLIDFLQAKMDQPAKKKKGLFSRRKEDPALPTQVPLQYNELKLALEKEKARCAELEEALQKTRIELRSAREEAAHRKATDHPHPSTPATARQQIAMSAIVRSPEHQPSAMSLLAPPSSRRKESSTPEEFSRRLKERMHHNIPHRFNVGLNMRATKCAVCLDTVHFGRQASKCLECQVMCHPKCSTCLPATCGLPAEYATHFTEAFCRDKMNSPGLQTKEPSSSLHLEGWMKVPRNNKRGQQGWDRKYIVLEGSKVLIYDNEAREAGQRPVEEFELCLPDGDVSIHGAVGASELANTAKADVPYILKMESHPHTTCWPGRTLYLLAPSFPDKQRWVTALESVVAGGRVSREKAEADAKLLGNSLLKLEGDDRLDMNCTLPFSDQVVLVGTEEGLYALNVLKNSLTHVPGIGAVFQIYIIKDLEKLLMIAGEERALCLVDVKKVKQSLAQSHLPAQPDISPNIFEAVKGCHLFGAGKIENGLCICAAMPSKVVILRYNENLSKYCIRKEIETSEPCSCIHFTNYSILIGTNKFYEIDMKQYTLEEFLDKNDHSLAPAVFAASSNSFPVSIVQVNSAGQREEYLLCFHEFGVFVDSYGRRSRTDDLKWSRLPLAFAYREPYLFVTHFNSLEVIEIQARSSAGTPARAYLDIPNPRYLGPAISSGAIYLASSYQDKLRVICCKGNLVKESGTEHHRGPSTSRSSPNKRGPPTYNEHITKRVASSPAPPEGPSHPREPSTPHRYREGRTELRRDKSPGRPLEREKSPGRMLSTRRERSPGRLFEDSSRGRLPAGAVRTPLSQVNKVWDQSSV
T8 sequence (P29597 556-888 limits assumed): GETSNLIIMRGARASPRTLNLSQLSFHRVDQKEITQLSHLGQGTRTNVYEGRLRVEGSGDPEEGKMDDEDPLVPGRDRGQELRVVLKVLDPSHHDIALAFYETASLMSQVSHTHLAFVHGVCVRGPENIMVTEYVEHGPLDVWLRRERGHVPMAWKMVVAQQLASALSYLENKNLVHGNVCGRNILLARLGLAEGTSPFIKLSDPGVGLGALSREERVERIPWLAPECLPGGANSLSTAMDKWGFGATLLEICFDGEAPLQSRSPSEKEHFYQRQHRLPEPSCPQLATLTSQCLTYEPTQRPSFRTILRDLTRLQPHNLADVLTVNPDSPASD

Take `Fc1ccc(-c2c(-c3ccncc3)[nH]c3nccnc23)cc1` [Compound 122]: the inhibition at 10 µM at PRKD1 (PRKD1 (PKD1), 10 µM, read-out: % Competition) was 92%; on p38-beta (10 µM, read-out: % Competition), 100%; on CLK2 (CLK2, 10 µM, read-out: % Competition), 97%; on TNIK (TNIK, 10 µM, read-out: % Competition), 96%; at DAPK1 (DAPK1, 10 µM, read-out: % Competition), below 50%; at RET (RET, 10 µM, read-out: % Competition), 68%. Also, the inhibition at 10 µM worked out at 83% on ACVRL1 (ACVRL1, 10 µM, read-out: % Competition); 71% at LCK (LCK, 10 µM, read-out: % Competition); 87% on MEK4 (MEK4, 10 µM, read-out: % Competition). The “% Competition” value at JNK3 is 88%; on CIT it was 99%; in experiment [1], 78%; at EGFR(L858R), 98%.

On to `Fc1ccc(-c2c(-c3ccncc3)[nH]c3nccnc23)cc1` [RO1155697-000-005], for which the inhibition at 10 µM was 92% on PRKD1 (PRKD1, compound concentration 10 uM, read-out: Percent Competition); 100% on p38-beta (compound concentration 10 uM, read-out: Percent Competition); 97% on CLK2 (CLK2, compound concentration 10 uM, read-out: Percent Competition); 96% at TNIK (TNIK, compound concentration 10 uM, read-out: Percent Competition); below 50% on DAPK1 (DAPK1, compound concentration 10 uM, read-out: Percent Competition); 68% at RET (RET, compound concentration 10 uM, read-out: Percent Competition). Moreover, the inhibition at 10 µM on ACVRL1 (ACVRL1, compound concentration 10 uM, read-out: Percent Competition) worked out at 83%; on LCK (LCK, compound concentration 10 uM, read-out: Percent Competition), 71%; at MEK4 (MEK4, compound concentration 10 uM, read-out: Percent Competition), 87%. For the same compound, the “Percent Competition” value at JNK3 (compound concentration 10 uM) is 88%; on CIT (compound concentration 10 uM), 99%; in experiment [1] (TYK2(JH2domain-pseudokinase), compound concentration 10 uM), 78%; at EGFR(L858R) (compound concentration 10 uM) it was 98%.

As for `CC(O)CNc1cc(-c2[nH]c3cccnc3c2-c2ccc(F)cc2)ccn1` (stereo not drawn) [Compound 140], the inhibition at 10 µM on PRKD1 (read-out: % Competition) is 83%; on CLK2 (read-out: % Competition) it was below 50%; on TNIK (read-out: % Competition) it was below 50%; on DAPK1 (read-out: % Competition), 73%; on RET (read-out: % Competition), below 50%; at ACVRL1 (read-out: % Competition) it was below 50%. Moreover, the inhibition at 10 µM on LCK (read-out: % Competition) and on MEK4 (read-out: % Competition) was below 50% each time. Also, the “% Competition” value at JNK3 is on record as 83%; at p38-beta (10 µM) it was 100%; at CIT, 99%; in experiment [1] it was 92%; at EGFR(L858R) it was 84%.
